Measurements reported in ChEMBL document CHEMBL1201862, “PubChem BioAssay data set” (2004).
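Dose response: 5 concentrations. Exposure: 48 h. Format: 96-well plates. Endpoint: linear interpolation; highest concentration if not reached. Abbreviation: GI50, concentration required for 50% inhibition of growth.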 Calls of active or inactive are those of the source. No stated cut-off is given here; in the data, active = GI50 up to about 1.1 µM and inactive = higher.

Assays:
Assay in all cases: NCI tumour cell line growth inhibition, 48 h
A498 = test system: A498
ACHN = test system: ACHN
CAKI-1 = test system: CAKI-1
CCRF-CEM = test system: CCRF-CEM
COLO 205 = test system: COLO 205
DLD-1 = test system: DLD-1
DMS-114 = test system: DMS-114
EKVX = test system: EKVX
HCT-15 = test system: HCT-15
HL-60 = test system: HL-60
HOP-18 = test system: HOP-18
HOP-62 = test system: HOP-62
HOP-92 = test system: HOP-92
HT-29 = test system: HT-29
IGROV-1 = test system: IGROV-1
K562 = test system: K562
KM-20L2 = test system: KM-20L2
LOX IMVI = test system: LOX IMVI
LXFL 529 = test system: LXFL 529
M14 = test system: M14
M19-MEL = test system: M19-MEL
MOLT-4 = test system: MOLT-4
Malme-3M = test system: Malme-3M
NCI-H226 = test system: NCI-H226
NCI-H23 = test system: NCI-H23
NCI-H460 = test system: NCI-H460
NCI-H522 = test system: NCI-H522
OVCAR-3 = test system: OVCAR-3
OVCAR-8 = test system: OVCAR-8
RPMI-8226 = test system: RPMI-8226
RXF 631 = test system: RXF 631
SF-268 = test system: SF-268
SF-295 = test system: SF-295
SF-539 = test system: SF-539
SK-MEL-28 = test system: SK-MEL-28
SK-MEL-2 = test system: SK-MEL-2
SK-MEL-5 = test system: SK-MEL-5
SK-OV-3 = test system: SK-OV-3
SN12C = test system: SN12C
SNB-19 = test system: SNB-19
SNB-75 = test system: SNB-75
SNB-78 = test system: SNB-78
SW-620 = test system: SW-620
TK-10 = test system: TK-10
U-251 = test system: U-251
UACC-62 = test system: UACC-62
UO-31 = test system: UO-31
786-0 = test system: 786-0
A549 = test system: A549
HCC 2998 = test system: HCC 2998
HCT-116 = test system: HCT-116
OVCAR-4 = test system: OVCAR-4
OVCAR-5 = test system: OVCAR-5
RXF 393 = test system: RXF 393
SR = test system: SR
UACC-257 = test system: UACC-257
XF498 = test system: XF498
DMS-273 = test system: DMS-273
KM12 = test system: KM12

C=C(C)C1Cc2c(c3ccccc3n(C)c2=O)O1 (centres undefined)
GI50 (A498): > 100 µM (inactive)
GI50 (ACHN): > 100 µM (inactive)
GI50 (CAKI-1): > 100 µM (inactive)
GI50 (CCRF-CEM): > 100 µM (inactive)
GI50 (COLO 205): > 100 µM (inactive)
GI50 (DLD-1): > 100 µM (inactive)
GI50 (DMS-114): > 100 µM (inactive)
GI50 (EKVX): > 100 µM (inactive)
GI50 (HCT-15): > 100 µM
GI50 (HL-60): > 100 µM (inactive)
GI50 (HOP-18): > 100 µM (inactive)
GI50 (HOP-62): < 0.01 µM (active)
GI50 (HOP-92): 93.3 µM (inactive)
GI50 (HT-29): > 100 µM (inactive)
GI50 (IGROV-1): > 100 µM (inactive)
GI50 (K562): > 100 µM (inactive)
GI50 (KM-20L2): > 100 µM (inactive)
GI50 (LOX IMVI): > 100 µM (inactive)
GI50 (LXFL 529): > 100 µM (inactive)
GI50 (M14): > 100 µM (inactive)
GI50 (M19-MEL): > 100 µM (inactive)
GI50 (MOLT-4): > 100 µM (inactive)
GI50 (Malme-3M): > 100 µM (inactive)
GI50 (NCI-H226): > 100 µM (inactive)
GI50 (NCI-H23): > 100 µM (inactive)
GI50 (NCI-H460): > 100 µM (inactive)
GI50 (NCI-H522): > 100 µM (inactive)
GI50 (OVCAR-3): > 100 µM (inactive)
GI50 (OVCAR-8): > 100 µM (inactive)
GI50 (RPMI-8226): > 100 µM (inactive)
GI50 (RXF 631): > 100 µM (inactive)
GI50 (SF-268): > 100 µM (inactive)
GI50 (SF-295): > 100 µM (inactive)
GI50 (SF-539): > 100 µM (inactive)
GI50 (SK-MEL-28): > 100 µM (inactive)
GI50 (SK-MEL-2): > 100 µM (inactive)
GI50 (SK-MEL-5): > 100 µM (inactive)
GI50 (SK-OV-3): > 100 µM (inactive)
GI50 (SN12C): > 100 µM (inactive)
GI50 (SNB-19): > 100 µM (inactive)
GI50 (SNB-75): > 100 µM (inactive)
GI50 (SNB-78): > 100 µM (inactive)
GI50 (SW-620): > 100 µM (inactive)
GI50 (TK-10): > 100 µM (inactive)
GI50 (U-251): > 100 µM (inactive)
GI50 (UACC-62): > 100 µM (inactive)
GI50 (UO-31): > 100 µM (inactive)

O=C(CC1C(=O)Nc2ccccc2S1(=O)=O)Nc1cc(Cl)ccc1Cl (centres undefined)
GI50 (786-0): 8.55 µM (inactive)
GI50 (A498): 15.8 µM (inactive)
GI50 (A549): 16.7 µM (inactive)
GI50 (ACHN): 17.2 µM (inactive)
GI50 (CAKI-1): 16.1 µM (inactive)
GI50 (CCRF-CEM): 17.8 µM (inactive)
GI50 (DLD-1): 15 µM (inactive)
GI50 (DMS-114): 12.5 µM (inactive)
GI50 (EKVX): 10.6 µM (inactive)
GI50 (HCC 2998): 20.5 µM (inactive)
GI50 (HCT-116): 14.4 µM (inactive)
GI50 (HCT-15): 11.5 µM
GI50 (HL-60): 11.8 µM (inactive)
GI50 (HOP-92): 14.2 µM (inactive)
GI50 (HT-29): 17.4 µM (inactive)
GI50 (IGROV-1): 13.1 µM (inactive)
GI50 (K562): 13.9 µM (inactive)
GI50 (KM-20L2): 15.6 µM (inactive)
GI50 (LOX IMVI): 5.37 µM (inactive)
GI50 (LXFL 529): 14.1 µM (inactive)
GI50 (M14): 14.3 µM (inactive)
GI50 (M19-MEL): 16.2 µM (inactive)
GI50 (MOLT-4): 6.01 µM (inactive)
GI50 (Malme-3M): 17.9 µM (inactive)
GI50 (NCI-H226): 14.8 µM (inactive)
GI50 (NCI-H23): 17.9 µM (inactive)
GI50 (NCI-H460): 13.6 µM (inactive)
GI50 (OVCAR-3): 14.6 µM (inactive)
GI50 (OVCAR-4): 16.8 µM (inactive)
GI50 (OVCAR-5): 24.4 µM (inactive)
GI50 (OVCAR-8): 17.5 µM (inactive)
GI50 (RPMI-8226): 2.87 µM (inactive)
GI50 (RXF 393): 15.8 µM (inactive)
GI50 (RXF 631): 28.4 µM (inactive)
GI50 (SF-268): 10.8 µM (inactive)
GI50 (SF-295): 17.5 µM (inactive)
GI50 (SF-539): 2.4 µM (inactive)
GI50 (SK-MEL-28): 16.6 µM (inactive)
GI50 (SK-MEL-2): 14.9 µM (inactive)
GI50 (SK-MEL-5): 13.5 µM (inactive)
GI50 (SN12C): 15.6 µM (inactive)
GI50 (SNB-19): 15.5 µM (inactive)
GI50 (SNB-75): 14.6 µM (inactive)
GI50 (SNB-78): 12.7 µM (inactive)
GI50 (SR): 7.16 µM (inactive)
GI50 (SW-620): 19.4 µM (inactive)
GI50 (TK-10): 20.1 µM (inactive)
GI50 (U-251): 10 µM (inactive)
GI50 (UACC-257): 35.2 µM (inactive)
GI50 (UACC-62): 14.6 µM (inactive)
GI50 (UO-31): 15.6 µM (inactive)
GI50 (XF498): 14.1 µM (inactive)

O=C(NCCCC/N=c1/cccccc1NCCCCNC(=O)OCc1ccccc1)OCc1ccccc1
GI50 (786-0): 16.4 µM (inactive)
GI50 (A498): > 10 µM (inactive)
GI50 (A549): 26.5 µM (inactive)
GI50 (ACHN): 23.2 µM (inactive)
GI50 (CAKI-1): 20.9 µM (inactive)
GI50 (CCRF-CEM): 16.6 µM (inactive)
GI50 (DLD-1): 12.6 µM (inactive)
GI50 (DMS-114): 8.11 µM (inactive)
GI50 (DMS-273): 17.5 µM (inactive)
GI50 (EKVX): 22.9 µM (inactive)
GI50 (HCC 2998): 15.7 µM (inactive)
GI50 (HCT-116): 9.98 µM (inactive)
GI50 (HCT-15): 8.05 µM
GI50 (HL-60): 13.2 µM (inactive)
GI50 (HOP-62): 21.2 µM (inactive)
GI50 (HOP-92): 3.14 µM (inactive)
GI50 (HT-29): 6.04 µM (inactive)
GI50 (IGROV-1): 20.9 µM (inactive)
GI50 (K562): 10.1 µM (inactive)
GI50 (KM-20L2): 11 µM (inactive)
GI50 (KM12): 17.9 µM (inactive)
GI50 (LOX IMVI): 16.4 µM (inactive)
GI50 (M14): 14.5 µM (inactive)
GI50 (M19-MEL): 20.2 µM (inactive)
GI50 (MOLT-4): 15.3 µM (inactive)
GI50 (Malme-3M): 20.4 µM (inactive)
GI50 (NCI-H226): 16.4 µM (inactive)
GI50 (NCI-H23): 19.3 µM (inactive)
GI50 (NCI-H460): 11.5 µM (inactive)
GI50 (NCI-H522): 17.2 µM (inactive)
GI50 (OVCAR-3): 14.3 µM (inactive)
GI50 (OVCAR-4): 18.9 µM (inactive)
GI50 (OVCAR-5): 17.1 µM (inactive)
GI50 (OVCAR-8): 18.9 µM (inactive)
GI50 (RPMI-8226): 13 µM (inactive)
GI50 (RXF 393): 17.8 µM (inactive)
GI50 (RXF 631): 13.3 µM (inactive)
GI50 (SF-268): 25.6 µM (inactive)
GI50 (SF-295): 13.5 µM (inactive)
GI50 (SF-539): 16.3 µM (inactive)
GI50 (SK-MEL-28): 22.1 µM (inactive)
GI50 (SK-MEL-2): 18.8 µM (inactive)
GI50 (SK-MEL-5): 16.4 µM (inactive)
GI50 (SK-OV-3): 20.5 µM (inactive)
GI50 (SN12C): 18.8 µM (inactive)
GI50 (SNB-19): 23.8 µM (inactive)
GI50 (SNB-75): 18.7 µM (inactive)
GI50 (SNB-78): 24.6 µM (inactive)
GI50 (SW-620): 17 µM (inactive)
GI50 (TK-10): 19.2 µM (inactive)
GI50 (U-251): 16.1 µM (inactive)
GI50 (UACC-257): 15.2 µM (inactive)
GI50 (UACC-62): 19.4 µM (inactive)
GI50 (UO-31): 7.43 µM (inactive)
GI50 (XF498): 4.29 µM (inactive)
